# Several values for one entry are separate records, joined by “and”; a condition that tells them apart may be missing. Equal entries are not always repeated. Where two headings read alike, the source gives them in different places.
# Key:
# [1] = kinetics of the reaction with dilute HCl; format: physicochemical; details: illudin M
# From the text: Consistent with the above hypothesis are the results of the kinetics of the reaction of illudin M and dehydroilludin M with dilute HCl. […] In the reaction with dehydroilludin M, no intermediate could be detected by NMR spectroscopy. Presumably it formed too slowly and is too short-lived to be detected.
# [2] = tested on: Dunning leukemia; details: NCI DCT; cited from earlier work
# [3] = tested on: HL-60 cells; test: cells; format: cell-based, human
# [4] = tested on: MV522 cells; test: cells; format: cell-based, human; details: for IC50: Homo sapiens, MV522, 2 h, read-out: Two hour IC50
# [5] = tested on: human lung adenocarcinoma MV522; test: animal or person; details: MV522, ip, read-out: life span
# [6] = tested on: HL60 cells (myeloid); test: cells; format: cell-based, human; details: for IC50: Homo sapiens, HL-60, 2 h, read-out: Two hour IC50
# [7] = tested on: MV522; test: cells; format: cell-based; details: Homo sapiens, MV522, 48 h, read-out: 48 hour IC50
# [8] = tested on: 8392 cells; test: cells; format: cell-based; details: 48 h, read-out: 48 hour IC50
# [9] = tested on: 8392 cells (B-cell); test: cells; format: cell-based; details: 2 h, read-out: Two hour IC50
# [10] = tested on: HL60 cells; test: cells; format: cell-based; details: Homo sapiens, HL-60, 48 h, read-out: 48 hour IC50
# [11] = tested on: human lung adenocarcinoma MV522; details: in vivo
# [12] = tested on: HL60/MRI cells (human myeloid leukemia tumor cells); details: in vivo, iv
# [13] = tested on: B16 melanoma; test: B16 melanoma in mice; format: in vivo; details: same doses as P388
# [14] = tolerability in nude mice (MX-1 study); format: in vivo
# From the text: (§1) Nude mice are implanted subcutaneously (s.c.) by trocar with fragments of MX-1 mammary carcinomas harvested from s.c. growing MX-1 tumors in nude mice hosts. When tumors are approximately 5 mm×5 mm in size (usually about ten days after inoculation), the animals are pair-matched into treatment and control groups. Each group contains 10 tumored mice, each of which is eartagged and followed individually throughout the experiment. The administration of drugs or vehicle begins the day the animals are pair-matched (day 1). The doses, route of drug administration and schedule are selected as appropriate for the study in question, If the maximum tolerated dose (MTD) of an agent is not known, it was determined in an initial dosing experiment in non-tumored mice. In a typical experiment, drugs are given at their MTD and 1/2 MTD doses i.p. on a daily×5 schedule.
# (§2) HMAF was evaluated against the MX-1 mammary carcinoma xenograft at the MTD of 7.5 mg/kg, and also at 5.0 mg/kg, i.p. daily×5, delivered in 10% cremophor, 20% ethanol and 70% isotonic saline. The 7.5 mg mg/kg dose caused no lethality, or unacceptable weight loss to the nude mice (day 8 weight loss=9.5%). […] The 5.0 mg/kg dose produced 2 complete regressions, and an average 88% tumor shrinkage in the other 8 mice.
# [15] = tested on: MX-1 mammary carcinoma xenograft; test: MX-1 human breast tumor xenograft in nude mice; format: in vivo
# From the text: as §1
# The experiment is usually terminated when control tumors reach a size of 2-3 g. Mice are weighed twice weekly, and tumor measurements are taken by calipers twice weekly, starting on day 1. These tumor measurements are converted to mg tumor weight by a well-known formula, and from these calculated tumor weights the termination date can be determined. Upon termination, all mice are weighed, sacrificed, and their tumors excised. Tumors, are weighed, and the mean tumor weight per group is calculated. In this model, the mean treated tumor weight/mean control tumor weight×100% (T/C) is subtracted from 100% to give the tumor growth inhibition (TGI) for each group).
# Some drugs cause minor shrinkage in the MX-1 model. With these agents, the final weight of a given tumor is subtracted from its own weight at the start of treatment on day 1. This difference divided by the initial tumor weight is the % shrinkage. A mean % tumor shrinkage can be calculated from data from the mice in a group that experienced MX-1 regressions. If the tumor completely disappears in a mouse, this is considered a complete regression or complete tumor shrinkage.
# as §2
# [16] = tested on: HT-29 human colon tumor; test: in vitro activity, HT-29; format: cell-based; details: HT-29, HT29
# [17] = tested on: murine P388 cells; test: in vitro activity, P388; format: cell-based
# [18] = tested on: MCF-7 human breast tumor; test: in vitro activity, MCF-7; format: cell-based
# [19] = tested on: B16 melanoma; test: in vitro activity, B16; format: cell-based
# [20] = dosing/tolerability in B6D2F1 mice; format: in vivo
# Description: (§3) HMAF was also evaluated against P388 leukemia in mice. The tumor inoculum is prepared by removing ascites fluid containing P388 cells from tumored B6D2F1 mice, centrifuging the cells, and then resuspending the leukemia cells in saline. Mice receive 1×10^6 P388 cells i.p. on day 0. Initial dosing experiments on a daily×5 schedule in B6D2F1 mice established the MTD of HMAF as 7.5 mg/kg. HMAF was tested at doses of 7.5 and 5.0 mg/kg vs. the P388 leukemia model. […] A T/C value of 150 means that treated mice lived 50% longer than the controls. Weight loss at the higher dose was 13% on day 8, again confirming that 7.5 mg/kg is the MTD for this agent on the daily×5 schedule.
# [21] = tested on: P388 leukemia; test: P388 leukemia in mice; format: in vivo, murine
# Description: as §3
smiles,measurement,setting,value
"CC1=C2C(=CC(C)(C)C2O)C(=O)[C@](C)(O)C12CC2 (stereo partly drawn) [Illudin M, reference compound]",half-life,[1],2.47 h
same,"k, pseudo first-order reaction",[1],4.7×10^-3
same,life span of rats with Dunning leukemia,[2],significantly increased the life span
same,IC50,"[3]; Homo sapiens, HL-60",10 nM
"CC1=C(Cc2ccc(O)cc2)C2=C(C)C3(CC3)[C@@](C)(O)C(=O)C2=C1 [6-(p-hydroxybenzyl)acylfulvene, 6-(p-Hydroxybenzyl)acylfulvene]",IC50,[4],1180 nM
same,response vs control in vivo at 15 mg/kg,[5],125 ± 16%
same,response vs control in vivo at 20 mg/kg,[5],126 ± 22%
same,IC50,[6],264 ± 38 nM
same,IC50,[7],615 ± 56 nM
same,IC50,[8],11100 nM
same,IC50,[9],95200 nM
same,IC50,[10],382 ± 39 nM
same,efficacy in this model,[11],effective in this model
"CC1=C(I)C2=C(C)C3(CC3)[C@@](C)(O)C(=O)C2=C1 [6-iodoacylfulvene, 6-Iodoacylfulvene]",toxicity to target tumor cells,[4],markedly toxic
same,IC50,[4],956 ± 152 nM
same,response vs control in vivo at 20 mg/kg,[5],120 ± 34%
same,toxicity to target tumor cells,[6],markedly toxic
same,IC50,[6],2600 nM
same,IC50,[7],556 ± 47 nM
same,IC50,[8],1700 nM
same,IC50,[9],10300 nM
same,IC50,[10],290 ± 12 nM
Cc1cc2c(c(C)c1CCO)C(=O)[C@@H](C)[C@@H]2O [Pterosin C],IC50,[3]; read-out: IC50,12500 nM
O=NN(CCCl)C(=O)NCCCl [BCNU],IC50,"[3]; Homo sapiens, HL-60",23300 nM
CO[C@@]12[C@H](COC(N)=O)C3=C(C(=O)C(C)=C(N)C3=O)N1C[C@@H]1N[C@@H]12 [mitomycin C],life span versus control,[11],no significant increase in the life span
same,life span,"[11]; ip, 2.4 mg/kg",111 ± 2% and 149 ± 12%
COc1cccc2c1C(=O)c1c(O)c3c(c(O)c1C2=O)C[C@@](O)(C(=O)CO)C[C@@H]3O[C@H]1C[C@H](N)[C@H](O)[C@H](C)O1 [Adriamycin],life span versus control,[11],no significant increase in the life span
same,life span,"[11]; ip, 2.6 mg/kg",98 ± 12% and 150 ± 25%
COc1ccc(CC2=C(C)C=C3C(=O)[C@](C)(O)C4(CC4)C(C)=C32)cc1 [6-(p-methoxybenzyl)acylfulvene],IC50,[4],2040 nM
same,IC50,[6],1960 nM
same,IC50,[7],1550 nM
same,IC50,[8],7140 nM
same,IC50,[9],35700 nM
same,IC50,[10],1050 nM
C[C@@]1(CO)[C@H](O)CC[C@@]2(C)[C@H]1CC[C@H]1C[C@@H]3C[C@@]12CC[C@]3(O)CO [Aphidocolin],IC50,[3]; read-out: IC50,2100 nM
CC(=O)OCC1=C(C)C=C2C(=O)[C@](C)(O)C3(CC3)C(C)=C21 [6-acetoxymethylacylfulvene],IC50,[4],1070 nM
same,IC50,[6],3330 nM
same,IC50,[7],486 ± 42 nM
same,IC50,[8],4430 nM
same,IC50,[9],47500 nM
same,IC50,[10],806 ± 30 nM
"CC1=Cc2cc(C)c(C)c(C)c2C1=O [2,5,6,7-tetramethyl-1-indenone, 2,5,6,7-Tetramethyl-1-Indenone]",IC50,"[3]; Homo sapiens, HL-60",475 nM
"CC1=C(Br)C2=C(C)C3(CC3)[C@@](C)(O)C(=O)C2=C1 [6-bromoacylfulvene, 6-Bromoacylfulvene]",toxicity to target tumor cells,[4],markedly toxic
same,IC50,[4],4180 nM
same,toxicity to target tumor cells,[6],markedly toxic
same,IC50,[6],803 ± 88 nM
same,IC50,[7],356 ± 61 nM
same,IC50,[8],1190 nM
same,IC50,[10],412 ± 21 nM
same,efficacy in this model,[11],effective in this model
CC1=CC2=C(C)C3(CC3)[C@@](C)(O)C(=O)C2=C1 [Illudofulvene],IC50,[4],727 ± 180 nM
same,"adverse effects (food or water intake, body weight)",[12],did not display any evidence of adverse effect
same,inhibition of tumor growth,[12],effective at inhibiting tumor growth
same,IC50,[6],998 ± 244 nM
same,IC50,[7],349 ± 23 nM
same,IC50,[8],833 ± 152 nM
same,IC50,[9],66.4 nM
same,IC50,[10],364 ± 74 nM
same,IC50,"[3]; Homo sapiens, HL-60",500 nM
CC(=O)O[C@H]1C(=O)[C@@]2(C)[C@H]([C@H](OC(=O)c3ccccc3)[C@]3(O)C[C@H](OC(=O)[C@H](O)[C@@H](NC(=O)c4ccccc4)c4ccccc4)C(C)=C1C3(C)C)[C@]1(OC(C)=O)CO[C@@H]1C[C@@H]2O [taxol],response vs control in vivo at 4 mg/kg,[5],100 ± 10%
same,response vs control in vivo at 6 mg/kg,[5],93 ± 22%
same,response vs control in vivo at 20 mg/kg,[5],113 ± 22%
same,life span versus control,[11],no significant increase in the life span
same,tumor growth response,[11],failed to inhibit tumor growth
same,life span,"[11]; ip, 4 mg/kg",120 ± 10%
same,drug toxicity,"[11]; ip, 6 mg/kg",drug toxicity was now killing the animals
CC1=C(CO)C2=C(C)C3(CC3)[C@@](C)(O)C(=O)C2=C1 [6-hydroxymethylacylfulvene],activity against B16 melanoma in mice,[13],inactive
same,IC50,[4],114 ± 28 nM
same,toxicity to target tumor cells,"[4]; MV522, 2 and 48 hour",markedly toxic
same,lethality,[14]; 7.5 mg/kg i.p. daily×5,no lethality
same,weight loss,"[14]; 7.5 mg/kg i.p. daily×5, day 8",9.5%
same,MTD,"[14]; mouse, in vivo, ip, i.p. daily×5, nude mice",7.5 mg/kg
same,complete regressions,"[15]; 5.0 mg/kg i.p. daily×5, of 10 mice",2
same,average tumor shrinkage,"[15]; 5.0 mg/kg i.p. daily×5, other 8 mice",88%
same,complete tumor regressions,"[15]; 7.5 mg/kg i.p. daily×5, of 10 mice",4 mice
same,average tumor shrinkage,"[15]; 7.5 mg/kg i.p. daily×5, other 6 mice",91%
same,activity in MX-1 xenograft,[15]; in vivo,highly active
same,IC50,[16],0.05 µg/mL
same,IC50,"[17]; Mus musculus, P388, P388, read-out: IC50",0.16 to 0.32 µg/mL
same,IC50,"[17]; P388, listed as HMAF",0.165 µg/mL and 0.319 µg/mL
same,IC50,"[18]; Homo sapiens, MCF7, MCF-7, read-out: IC50",0.036 to 0.07 µg/mL
same,IC50,"[18]; MCF-7, listed as HMAF",0.036 µg/mL and 0.043 µg/mL
same,response vs control in vivo at 1 mg/kg,[5],135 ± 10%
same,response vs control in vivo at 5 mg/kg,[5],154 ± 13%
same,IC50,"[19]; B16, listed as HMAF",4.65 µg/mL and 3.73 µg/mL
same,IC50,"[19]; Mus musculus, B16, B16, read-out: IC50",3.73 to 4.65 µg/mL
same,weight loss,"[20]; higher dose, day 8, P388 study",13%
same,MTD,"[20]; mouse, in vivo, daily×5, B6D2F1 mice",7.5 mg/kg
same,toxicity to target tumor cells,[6],markedly toxic
same,IC50,[6],150 ± 11 nM
same,IC50,[7],73 ± 8 nM
same,IC50,[8],76 ± 4 nM
same,treated/control (T/C),[21]; 5.9 mg/kg,137
same,treated/control (T/C),[21]; 6.5 mg/kg,140
same,IC50,[9],7360 nM
same,IC50,[10],4 ± 1 nM
same,efficacy in this model,[11],markedly increased the life span
same,life span versus control,[11],lived significantly longer
same,"toxic side effects (activity, weight gain, food or water intake)",[11],no evidence of toxic side effects
same,tumor growth response,[11]; 10 mg/kg,Tumor regression
same,animals alive,"[11]; ip, 10 mg/kg","2 animals alive, ? cured"
same,life span,"[11]; ip, 10 mg/kg",233 ± 18% and 232 ± 20% and > 204%
